Values quoted from earlier work, collected in patent US20240190825A1, “PROCESS FOR PREPARATION OF CABOZANTINIB” (BIOCON LIMITED, priority 2021, published 2024).
Each block holds one molecule with its values, some of them ahead of it.

solubility in aqueous media (aqueous media): practically insoluble
Compound: COc1cc2nccc(Oc3ccc(NC(=O)C4(C(=O)Nc5ccc(F)cc5)CC4)cc3)c2cc1OC.O=C(O)C[C@H](O)C(=O)O [Cabozantinib (S)-malate salt, N-(4-(6,7-dimethoxyquinolin-4-yloxy)phenyl)-N′-(4fluorophenyl)cyclopropane-1,1-dicarboxamide, (2S)-hydroxybutanedioate]

water solubility (water): poorly water-soluble
Compound: COc1cc2nccc(Oc3ccc(NC(=O)C4(C(=O)Nc5ccc(F)cc5)CC4)cc3)c2cc1OC [Cabozantinib, N-(4-(6,7-dimethoxyquinolin-4-yloxy)phenyl)-N′-(4Fluorophenyl) cyclopropane-1,1-dicarboxamide]

solubility of crystal form (as disclosed in WO2020057622 A1 on WO2015177758 A1 forms): low
Compound: COc1cc2nccc(Oc3ccc(NC(=O)C4(C(=O)Nc5ccc(F)cc5)CC4)cc3)c2cc1OC.O=C(O)C[C@H](O)C(=O)O [crystalline form M4]
